According to patent US6395758B1, “Small molecule carbamates or ureas for vision and memory disorders” (GPI Nil Holdings, Inc., priority 1998, dated 2002):
Marks after values point to notes of the source that are not given here. Each block holds one compound with its values, some of them ahead of it.

Experiments:
[1] = tested on: retinal ganglion cell axons; experiment: Protection of retinal ganglion cell axons 14 days after optic nerve transection (Table E); type: in vivo; settings: ± SEM
Text: Efficacy of representative compounds from different immunophilin ligand series in protecting retinal ganglion cell axons from degeneration following optic nerve transection is set forth in Table E.

[2] = Clearance (Table E comments); type: in vitro ADME; settings: no method given
FKBP12 = FKBP12 (Homo sapiens, UniProt P62942); experiment: Ki test: inhibition of peptidyl-prolyl isomerase (rotamase) activity, chymotrypsin-coupled assay; type: biochemical; settings: apparent Ki, Table II
Text: The inhibition of the prolyl peptidyl cis-trans isomerase activity of FKBP may be measured as an indicator of this affinity. Inhibition of the peptidyl-prolyl isomerase (rotamase) activity of the compounds used in the inventive methods and pharmaceutical compositions can be evaluated by known methods described in the literature (Harding et al., Nature, 1989, 341:758-760; Holt et al. J. Am. Chem. Soc., 115:9923-9938). […] The cis-trans isomerization of an alanine-proline bond in a model substrate, N-succinyl-[…]-nitroanilide, is monitored spectrophotometrically in a chymotrypsin-coupled assay, which releases para-nitroanilide from the trans form of the substrate. The inhibition of this reaction caused by the addition of different concentrations of inhibitor is determined, and the data is analyzed as a change in first-order rate constant as a function of inhibitor concentration to yield the apparent Ki values. […] The absorbance at 390 nm versus time is monitored for 90 seconds using a spectrophotometer and the rate constants are determined from the absorbance versus time data files.

[3] = tested on: retinal ganglion cells and optic nerve axons; experiment: Optic nerve transection, 14 or 28 day treatment, evaluation 90 days after transection; type: in vivo, Sprague Dawley rats; settings: 90 days after ONT; for increased ON axon density: adjusted for optic nerve diameter; for ON axon Count: axonal density multiplied by ON area; for Proximal optic nerve myelin basic protein Density, % recovery: ± SEM
Text: All eyes and optic nerves stumps were removed.

[4] = tested on: retinal ganglion cells, optic nerve axons and myelin; experiment: Retinal ischemia (intraocular pressure raised above arterial pressure), evaluation 28 days later; type: in vivo, rats
Text: Retinal ganglion cells were retrogradely labeled in adult rats by bilateral injection of fluorogold in their lateral geniculate nuclei. Labeled ganglion cells in the normal rat retina appear as white profiles against the dark background (FIG. 1A). Complete retinal ischemia was produced by infusing normal saline solution into the retinal vitreous cavity of each eye until the intraocular pressure exceeded arterial blood pressure. 28 days after the ischemic episode extensive degeneration of retinal ganglion cell was evidenced by massive reduction in the density of fluorogold labeled cells (FIG. 1B).
Optic nerves from vehicle treated cases examined 28 days after a 1 hour retinal ischemic episode are characterized by a decreased density of optic nerve axons and the appearance of numerous degenerating myelin figures (bright white filled circles).

[5] = tested on: retina (neovascularization, INL, GCL, ONL neurons); experiment: Streptozotocin induced diabetes, retinal neovascularization and neuron loss; type: in vivo
[6] = tested on: retinal ganglion cells and their axons; experiment: Example 18: optic nerve transection, 28 day GPI-1046, sacrifice at 90 days; type: in vivo, Sprague Dawley rats; settings: 10 mg/kg/day s.c. for 28 days; 90 days after transection
Text: Transection of the mammalian optic nerve results in a brief period of abortive regeneration, but the majority of axotomized neurons die and the axons from many persisting ganglion cells die back beyond the optic nerve head.

[7] = tested on: streptozotocin-induced diabetic rat; experiment: Streptozotocin-induced diabetic sensory neuropathy, hot plate and tail flick; type: in vivo, Male Wistar rats; settings: treated for 6 weeks at 10 mg/kg s.c., started six weeks after streptozotocin
Description: The procedure involved using Male Wistar rats which were given a single injection of streptozotocin (65 mg/kg i.v.). Blood glucose levels were determined weekly for the first three weeks and on the last week of the experiment. Animals were evaluated weekly for signs of sensory neuropathy using the conventional hot plate and tail flick apparatus test procedures.

aged impaired mice = experiment: Morris watermaze, spatial learning and memory in aged rodents; type: in vivo, C57BL/6N-Nia mice; settings: 10 mg/kg daily
Text: The Morris watermaze is widely used for assessing spatial memory formation and retention in experimental animals. The test depends on the animal's ability to utilize spatial visual information in order to locate a submerged escape platform in a water tank. It is important that the tank itself be as devoid of specific visual features as possible—thus, it is always circular in shape, the sides are kept smooth and in uniform dull colors, and the water is rendered opaque with nontoxic watercolor pigment or powdered milk. This is to ensure that the animal navigates only by the use of more distant visual cues, or by the use of intra-maze cues specifically provided by the experimenter. The animals' path, speed, and swim time are tracked with a ceiling camera for later computerized analysis. Over the course of several successive trials, spatial learning can therefore be defined as a drop of distance swum, or time elapsed, from placement in the tank until escape onto the invisible platform. The procedure involved using three-month old (young) and 18-19 month old male C57BL/6N-Nia (aged) mice which habituated to the well known and conventional Morris watermaze during a 4 trials/day, 3-4 day visible platform training phase. […] Swim Distances (cm) were analyzed in a 7×5 ANOVA including Groups and Blocks (1-5) as factors in the analysis, treating Blocks as a repeated measure.

[8] = 28 day treatment beginning 8 weeks after onset of streptozotocin diabetes

FKBP12, sequence (P62942 whole entry, species assumed): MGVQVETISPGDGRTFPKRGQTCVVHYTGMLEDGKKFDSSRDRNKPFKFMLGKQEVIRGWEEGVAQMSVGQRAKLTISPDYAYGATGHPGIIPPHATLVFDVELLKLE

Structure (SMILES): O=C(SCCCc1ccccc1)[C@@H]1CCCN1C(=O)NC12CC3CC(CC(C3)C1)C2 [B]
- RT97 + RGC axon density 14 days after ON transection (% ON axons rescued) [1]: 100.0% ± 5.2% SEM

Structure (SMILES): O=C(SCCCc1ccccc1)[C@@H]1CCCN1S(=O)(=O)Cc1ccccc1 [C]
- Clearance [2]: 31.1 µL/min
- RT97 + RGC axon density 14 days after ON transection (% ON axons rescued) [1]: 60.4% ± 3.1% SEM

Structure (SMILES): CCC(C)CNC(=O)N1CCC[C@H]1C(=O)OCCCc1cccnc1 (stereo partly drawn) [Compound 1, 3-(3-pyridyl)-1-propyl (2S)-1-[(2-methylbutyl)carbamoyl]pyrrolidine-2-carboxylate]
- Ki (FKBP12): 70 nM

Structure (SMILES): CCC(C)(C)NC(=O)N1CCC[C@H]1C(=O)OCCCc1cccnc1 [Compound 2, 3-(3-Pyridyl)-1-propyl (2S)-1-[(1′,1′-dimethylpropyl)carbamoyl]pyrrolidine-2-carboxylate]
- Ki (FKBP12): 742 nM

Structure (SMILES): O=C(OCCCc1cccnc1)[C@@H]1CCCN1C(=O)NC1CCCCC1 [Compound 4, 3-(3-pyridyl)-1-propyl (2S)-1-[(cyclohexyl)carbamoyl]-pyrrolidine-2-carboxylate]
- Ki (FKBP12): 1480 nM

Structure (SMILES): O=C(OCCCc1cccnc1)[C@@H]1CCCN1C(=S)NC12CC3CC(CC(C3)C1)C2 [Compound 5, 3-(3-pyridyl)-1-propyl (2S)-1-[(1-adamantyl)thiocarbamoyl]-pyrrolidine-2-carboxylate]
- Ki (FKBP12): 116 nM

- Clearance [2]: 4.5 µL/min
Structure (SMILES): CCC(C)(C)C(=O)C(=O)N1CCCC[C@H]1C(=O)SCCC(c1ccccc1)c1ccccc1 [Compound K]

- Clearance [2]: 41.8 µL/min
Structure (SMILES): CCC(C)(C)C(=O)C(=O)N1CCCCC1C(=O)OC(CCc1ccccc1)CCc1ccccc1 (stereo not drawn) [E]

Structure (SMILES): CCC(C)(C)C(=O)C(=O)N1CCC[C@H]1C(=O)SCCCc1cccnc1 [GPI 1046]
- Clearance [2]: 63.8 µL/min
- % RGCs Rescued ([3]; 14 days GPI 1046): 5.3%
- % surviving RGCs with ON axons ([3]; 14 days GPI 1046): 33.6%
- ON head area (% sham) ([3]; 14 days GPI 1046): 76%
- Spared RGC population ([3]; 14 days GPI 1046): 20,275
- increased ON axon density ([3]; 14 days GPI 1046): 1.5×
- ON axon Count ([3]; 14 days GPI 1046): 6820
- Distal optic nerve myelin basic protein loss ([3]; 14 days GPI 1046, cross sectional area multiplied by myelin density): 47% loss
- Distal optic nerve shrinkage ([3]; 14 days GPI 1046, cross sectional area vs sham): 33% shrinkage
- ON Axon density ([3]; 14 days GPI 1046, mean ± SEM RT97 labeled axons in 200 μm × 200 μm region): 569 ± 23
- Proximal optic nerve myelin basic protein Density, % recovery ([3]; 14 days GPI 1046, % areal coverage of cross section): 1.6 ± 3.0 SEM % recovery
- RGC Counts ([3]; 28 days GPI 1046 10 mg/kg/day sc, mean density ± SEM of Fluoro-gold labeled RGC in 400 μm × 400 μm gridfields): 67.9 ± 5.8
- % surviving RGCs with ON axons ([3]; 28 days GPI 1046): 81.4%
- Distal optic nerve myelin preservation ([3]; 28 days GPI 1046): 99% myelin
- ON head area (% sham) ([3]; 28 days GPI 1046): 95%*
- Spared RGC population ([3]; 28 days GPI 1046): 28,096*
- increased ON axon density ([3]; 28 days GPI 1046): 5.0×
- ON axon Count ([3]; 28 days GPI 1046): 22,861*
- Distal optic nerve, less shrinkage ([3]; 28 days GPI 1046, cross sectional area vs sham): 56% less shrinkage*
- Proximal optic nerve myelin basic protein Density, % recovery ([3]; 28 days GPI 1046): 70 ± 6.3 SEM % recovery
- density of myelin, distal stump ([3]; first 14 days GPI 1046): slightly increase the density of myelin
- shrinkage of the distal stump ([3]; first 14 days GPI 1046): did not protect against shrinkage
- protection of optic nerve axons ([3]; first 14 days GPI 1046, proximal stump): 5.3%
- cross sectional shrinkage of the distal stump ([3]; first 28 days GPI 1046): prevented cross sectional shrinkage
- fascicular staining pattern for myelin basic protein, proximal stump ([3]; first 28 days GPI 1046): dramatic preservation of the fascicular staining pattern
- myelin levels, distal stump, % of normal levels ([3]; first 28 days GPI 1046): 99%
- RT97 + RGC axon density 14 days after ON transection (% ON axons rescued) [1]: 60.5% ± 3.9 SEM
- protection of fluorogold labeled retinal ganglion cells ([4]; 10 mg/kg s.c. 1 hour prior to ischemia and 10 mg/kg/day for next four days, 28 days after ischemia): noticeable protection of a large proportion of the vulnerable ganglion cell population
- density of degenerating myelin figures in optic nerve ([4]; 28 days after 1 hour retinal ischemic episode): dramatically decreased the density of degenerating myelin figures
- neovascularization in the PR, ONL, OPL and INL [5, 8]: reduced neovascularization
- neuronal loss in the ONL [5, 8]: did not appear to protect against neuronal loss
- loss of neurons in the INL and GCL ([5]; 28 day treatment beginning 8 weeks after onset, vs streptozotocin/vehicle controls): appeared to decrease the loss of neurons
- axons in the proximal stump of the transected nerve (RT97) [6]: preserved the axons of virtually all protected neurons
- ganglion cell population spared [6]: 25%
- latency, hot plate and tail flick [7]: improvement in latency
- spatial memory performance, retention testing (swim distance), aged impaired GPI-1046 vs aged impaired vehicle (aged impaired mice; retention testing after 3 weeks of dosing, F1.69=8.11, P=0.006): significantly enhanced spatial memory performance
- retention phase swim distance, young vs aged impaired GPI-1046 (aged impaired mice; F1.69=3.09, P=0.08): no longer any statistically significant difference

Structure (SMILES): CCC(C)(C)C(=O)C(=O)N1CCCC[C@H]1C(=O)O [G]
- RT97 + RGC axon density 14 days after ON transection (% ON axons rescued) [1]: 34.0% ± 4.8% SEM

Structure (SMILES): CCC(C)(C)C(=O)C(=O)N1CCCC[C@H]1C(N)=O [H]
- RT97 + RGC axon density 14 days after ON transection (% ON axons rescued) [1]: 30.3% ± 8.0% SEM

- Clearance [2]: 8.0 µL/min
Structure (SMILES): O=C(OCCCc1cccnc1)[C@@H]1CCCN1C(=S)NC1CCCCC1 [I]
- RT97 + RGC axon density 14 days after ON transection (% ON axons rescued) [1]: 23.8% ± 5.3 SEM

- Clearance [2]: 1.5 µL/min
Structure (SMILES): CCC(C)(C)C(=O)C(=O)N1CCC[C@H]1C(=O)CCCCc1cccnc1 [J]
- RT97 + RGC axon density 14 days after ON transection (% ON axons rescued) [1]: 15.8% ± 4.8% SEM

Structure (SMILES): CCC(C)(C)C(=O)C(=O)N1CCC[C@H]1C(=O)O [L]
- Clearance [2]: 5.2 µL/min
- RT97 + RGC axon density 14 days after ON transection (% ON axons rescued) [1]: 7.8% ± 3.0% SEM

Structure (SMILES): CCC(C)(C)C(=O)C(=O)N1CCC[C@H]1C(=O)SCCC(c1ccccc1)c1ccccc1 [M]
- Clearance [2]: 12.5 µL/min
- RT97 + RGC axon density 14 days after ON transection (% ON axons rescued) [1]: −6.3% ± 3.9% SEM

- Clearance [2]: 21.9 µL/min
Structure (SMILES): CN(C)C(=O)N1CCC[C@H]1C(=O)SCCCc1ccccc1 [N]
